# According to PMC8126888 (RSC Medicinal Chemistry, 2020):
# Like-named read-outs stand apart in the source and are kept apart here.
# Key:
# [1] = in vitro; conditions: PAMPA
# [2] = test system: Trypanosoma cruzi, Tulahuen CL2, beta-galactosidase strain; assay: microbe, parasite or virus in culture
# [3] = in vitro; conditions: mouse, microsomes, mouse liver microsomes
# [4] = in vitro; conditions: Swiss, mouse
# [5] = in vitro; conditions: human
# [6] = in vitro; conditions: human, microsomes, human liver microsomes
# [7] = test system: Leishmania infantum MHOM/MA(BE)/67/ITMAP263 intracellular amastigotes; assay: microbe, parasite or virus in culture; conditions: Macrophage, in Mus musculus
# [8] = physchem; conditions: HPLC, Ascentis Express RP Amide column, pH 7.4, eLogD
# [9] = test system: primary peritoneal mouse macrophages (PMM); conditions: PMM IC50 / L. infantum IC50
# [10] = test system: Leishmania infantum (MHOM/MA/67/ITMAP-263) intracellular amastigotes in THP-1; assay: microbe, parasite or virus in culture; conditions: THP-1, read-out: L. infantum MHOM/MA/67/ITMAP263 intracellular amastigotes THP-1 cells IC50 (uM)
# [11] = in vitro; conditions: PAMPA; remark: listed apart in the source
# [12] = in vitro; conditions: human, THP-1 cells differentiated with PMA
# [13] = test system: primary peritoneal mouse macrophages (PMM); assay: cells; conditions: Macrophage, read-out: PMM IC50 (uM)
# [14] = in vitro; conditions: human, HFF-1 cells
# [15] = in vitro; conditions: human, HepG2 cells
# [16] = MRC5, read-out: T. cruzi Tulahuen C4 (LacZ) IC50
# [17] = read-out: L. Inf. pIC50, from L. infantum intracellular amastigote IC50 (converted)
# [18] = read-out: L. infantum MHOM/MA(BE)/67/ITMAP263 intracellular amastigotes IC50
# [19] = MRC5, read-out: T. cruzi Tulahuen C4 (LacZ) IC50 (uM)
# [20] = read-out: L. infantum MHOM/MA(BE)/67/ITMAP263 intracellular amastigotes IC50 (uM), intracellular amastigotes
Structure (SMILES),CC50 at 3 days [5],"IC50 [7, 17]",IC50 [10],chromatographic logD ([8]; experimental),Papp [11],CC50 at 120 h [12],IC50 [13],CC50 [14],"IC50 [2, 19]","microsomal CLint at 0.5 μM ([3]; pH 7.4, MLM CLint (uL/min/mg))",CC50 [15],"microsomal CLint at 0.5 μM ([6]; pH 7.4, HLM CLint (uL/min/mg))","IC50 [7, 20]",other results
COc1ccc(OC)c(S(=O)(=O)N(Cc2ccccc2)Cc2ccccc2)c1 [DNDI0003292440],45.2 µM,0.372 µM,–,–,–,–,–,–,–,–,–,–,–,"Papp [1]: 0.43 ×10⁻⁶ cm/s; IC50 [2, 16]: 5.71 µM; microsomal CLint at 0.5 μM ([3]; pH 7.4, MLM CLint): 1300 µL/min/mg; IC50 [4]: > 64 µM; microsomal CLint at 0.5 μM ([6]; pH 7.4, HLM CLint): 242 µL/min/mg; IC50 [7, 18]: 0.36 µM"
CCCCC(=O)Nc1cccnc1S(=O)(=O)CCc1ccccc1 [DNDI0003363561],> 64 µM,> 64 µM,–,–,–,–,–,–,–,–,–,–,–,"chromatographic logD [8]: 3.9; Papp [1]: 18.9 ×10⁻⁶ cm/s; SI (vs PMM) [9]: 1; IC50 [2, 16]: > 64 µM; IC50 [4]: > 64 µM; IC50 [7, 18]: > 64 µM"
NS(=O)(=O)c1cc2c(cc1Cl)NCN(Cc1ccccc1)S2(=O)=O [DNDI0003392143],> 64 µM,57.5 µM,> 64 µM,2.3,2.83 ×10⁻⁶ cm/s,> 64 µM,> 64 µM,> 64 µM,27.2 µM,164 µL/min/mg,> 64 µM,21 µL/min/mg,57 µM,–
O=S(=O)(NCc1ccccc1)c1cc2c(cc1Cl)NCN(Cc1ccccc1)S2(=O)=O [DNDI0003392144],> 64 µM,> 64 µM,> 64 µM,3.7,1.61 ×10⁻⁶ cm/s,53.2 µM,> 64 µM,60.2 µM,35.7 µM,261 µL/min/mg,> 64 µM,82 µL/min/mg,> 64 µM,–
COc1ccc(Cl)cc1S(=O)(=O)N(Cc1ccccc1)C1COC(=O)OC1 [DNDI0003392146],59.1 µM,17 µM,> 64 µM,3.5,13.2 ×10⁻⁶ cm/s,> 64 µM,> 64 µM,54.8 µM,17 µM,118 µL/min/mg,> 64 µM,21 µL/min/mg,16.9 µM,–
CCCCC1Nc2cc(Cl)c(S(N)(=O)=O)cc2S(=O)(=O)N1Cc1ccccc1 (stereo not shown) [DNDI0003392147],> 64 µM,7.24 µM,23.4 µM,4,1.39 ×10⁻⁶ cm/s,12 µM,> 64 µM,> 64 µM,> 64 µM,147 µL/min/mg,> 64 µM,22 µL/min/mg,7.3 µM,–
CCCCOc1ccc(C(=O)N2CCOCC2)cc1S(=O)(=O)NCc1ccccc1 [DNDI0003407874],> 64 µM,> 64 µM,> 64 µM,3.1,27.4 ×10⁻⁶ cm/s,> 64 µM,> 64 µM,> 64 µM,45.9 µM,274 µL/min/mg,> 64 µM,160 µL/min/mg,> 64 µM,–
O=C(c1ccc(OCC2CCCO2)c(S(=O)(=O)NCc2ccccc2)c1)N1CCOCC1 (stereo not shown) [DNDI0003407877],> 64 µM,> 64 µM,> 64 µM,2.7,14.7 ×10⁻⁶ cm/s,> 64 µM,> 64 µM,> 64 µM,31 µM,181 µL/min/mg,> 64 µM,85 µL/min/mg,> 64 µM,–
COc1ccc(S(N)(=O)=O)cc1S(=O)(=O)NCc1ccccc1 [DNDI0003407892],> 64 µM,> 64 µM,> 64 µM,1.1,0.61 ×10⁻⁶ cm/s,> 64 µM,> 64 µM,> 64 µM,> 64 µM,23 µL/min/mg,> 64 µM,20 µL/min/mg,> 64 µM,–
COc1ccc(C(=O)N2CCOCC2)cc1S(=O)(=O)N(Cc1ccc(C(F)(F)F)nc1)C(C)c1ccc(F)cc1 (stereo not shown) [DNDI0003407905],> 64 µM,2.34 µM,9.86 µM,3.8,18.1 ×10⁻⁶ cm/s,> 64 µM,> 64 µM,49.4 µM,25 µM,531 µL/min/mg,> 64 µM,267 µL/min/mg,2.36 µM,–
COc1cc2c(cc1S(=O)(=O)N(Cc1ccccc1)Cc1ccccc1)S(=O)(=O)NCN2 [DNDI0003425513],22.9 µM,2.51 µM,48.3 µM,3.6,0.38 ×10⁻⁶ cm/s,> 64 µM,> 64 µM,21.9 µM,9.44 µM,249 µL/min/mg,> 64 µM,100 µL/min/mg,2.53 µM,–
COc1ccc(S(C)(=O)=O)cc1S(=O)(=O)N(Cc1ccccc1)CC(C)(C)C [DNDI0003425524],> 64 µM,2.69 µM,47.7 µM,3.6,14.1 ×10⁻⁶ cm/s,> 64 µM,> 64 µM,57.2 µM,28.7 µM,1100 µL/min/mg,> 64 µM,1050 µL/min/mg,2.69 µM,–
COc1ccc(S(C)(=O)=O)cc1S(=O)(=O)N(Cc1ccccc1)Cc1cc(C(F)(F)F)nn1C [DNDI0003578374],> 64 µM,13.2 µM,> 64 µM,3.5,7.6 ×10⁻⁶ cm/s,> 64 µM,> 64 µM,> 64 µM,> 64 µM,182 µL/min/mg,> 64 µM,60 µL/min/mg,13.1 µM,–
COc1ccc(C#N)cc1S(=O)(=O)N(Cc1ccc(C(F)(F)F)nc1)Cc1ccc(C(F)(F)F)nc1 [DNDI0003578377],> 64 µM,38 µM,> 64 µM,3.9,3.45 ×10⁻⁶ cm/s,> 64 µM,> 64 µM,> 64 µM,61.7 µM,64 µL/min/mg,> 64 µM,17 µL/min/mg,38.1 µM,–
